Reference: patent US20060004029A1, “Nitrogen-containing aromatic derivatives” (priority 2003, published 2006)

Experiments:
[1] = system: Human Umbilical Vein Endothelial Cells (HUVECs); experiment: Inhibition against sandwich tube formation by vascular endothelial cells, VEGF-stimulated; type: cell-based; conditions: HUVEC, 25 ng/ml VEGF and 10 ng/ml EGF, 4th day after addition
Procedure: (§1) Human Umbilical Vein Endothelial Cells (HUVECs) were isolated according to a reported method (Shinseikagaku Jikken Koza [New Biochemistry Experiment Lectures], “Saibo Baiyo Gijutsu” [Cell Culturing Techniques], p. 197-202), • and were cultured in a 5% CO2 incubator (37° C.) using EGM-2 medium (purchased from Clonetics Corp.) until the cells reached confluency.
(§2) An ice-cooled mixture of collagen: 5×RPMI 1640: reconstitution buffer (all purchased from Nitta Gelatin, Inc.) at 7:2:1 was dispensed at 0.4 ml into each well of a 24-well plate. After the solution was gelled by being stationed for 40 minutes in a 5% CO2 incubator (37° C.), HUVEC cell suspension was added at 0.4 ml to each well (using 1 to 1.2×10^5 cells, though the numbers of cells differ slightly according to the HUVEC lot), the HUVEC cell suspension being in human endothelial serum free medium (SFM, purchased from GIBCO BRL) containing added angiogenesis factors [20 ng/ml FGF2 (purchased from GIBCO BRL) and 10 ng/ml EGF (purchased from GIBCO BRL), or 25 ng/ml VEGF (purchased from Wako Pure Chemical Industries Co., Ltd.) and 10 ng/ml EGF, or 30 ng/ml HGF (purchased from R&D Co.) and 10 ng/ml EGF], and cultured overnight in a 5% CO2 incubator (37° C.). On the following day, the medium on the upper layer was aspirated off, and then 0.4 ml of an ice-cooled mixture of collagen: 5×RPMI 1640: reconstitution buffer (all purchased from Nitta Gelatin, Inc.) at 7:2:1 was superposed into each well prior to stationing for 4 hours in a 5% CO2 incubator (37° C.) for gelling. After adding 1.5 ml of an SFM solution containing each of the aforementioned angiogenesis factors and a diluted test substance onto the upper layer, culturing was performed in a 5% CO2 incubator (37° C.). Upon aspirating off the culture supernatant in each well on the 4th day after addition of the test substance, 0.4 ml of a 3.3 mg/ml MTT solution dissolved in PBS (purchased from Sigma Corp.) was added to each well and culturing was performed for approximately 2 hours in a 5% CO2 incubator (37° C.). The tubes formed in the collagen gel of each well were stained by MTT, the tube images were loaded into a computer (Macintosh), and the total length of the tubes was determined by image analysis software “MacScope” (purchased from Mitani Corp.). The ratio of the total length of the tubes formed in the well containing the test substance with respect to the total length of the tubes formed in the well containing no test substance was expressed as a percentage, and the concentration of each test substance required for 50% inhibition of tube formation (IC50) was determined from the ratio value.

[2] = system: Human Umbilical Vein Endothelial Cells (HUVECs); experiment: Inhibition against sandwich tube formation by vascular endothelial cells, FGF2-stimulated; type: cell-based; conditions: HUVEC, 20 ng/ml FGF2 and 10 ng/ml EGF, 4th day after addition
Procedure: as §1, §2

With CCNC(=O)n1ccc2cc(Oc3ccnc(NC(=O)N4CCC(C)(O)CC4)c3)ccc21 [Example 78, 5-(2-(((4-Hydroxy-4-methylpiperidin-1-yl)carbonyl)amino)pyridin-4-yloxy)-1H-indole-1-carboxylic acid ethylamide] the IC50 [1] was 3 nM and the IC50 [2] was 450 nM.
